Data on 12 compounds can be found in patent US3957987A, “Compositions containing a carbonamidoquinoxaline-di-N-oxide and method of using same” (Bayer Aktiengesellschaft, priority 1971, dated 1976).

Molecules are shown by their SMILES. In brackets after ≈: the same amount, converted by molar mass.

In experiment [1] the test system is Clostridium tetani. The experiment in a line: microbe, parasite or virus in culture. Type of experiment: cell-based. The conditions noted are these: read-out: minimum inhibitory concentration.
In experiment [2] the test system is Clostridium botulinum. The experiment in a line: microbe, parasite or virus in culture. Type of experiment: cell-based. The conditions noted are these: read-out: minimum inhibitory concentration.
Experiment [3] relates to Aeromonas liquefaciens. In words: Minimum inhibitory concentration, Aeromonas liquefaciens. Type of experiment: cell-based. Particulars: Aeromonas hydrophila.
For experiment [4], the system named is Mycobacterium species. The experiment in a line: Minimum inhibitory concentration, Mycobacterium species. The experiment is classed as cell-based. The source says: (§1) As representative of the spectrum of antimicrobial activity for these compounds, the following representative minimum inhibitory concentrations shown on Tables A, B and C can be noted: […]
The test system of experiment [5] is Klebsiella 63. In words: Minimum inhibitory concentration in vitro, Klebsiella 63. The experiment is classed as cell-based. An excerpt: (§2) As representative of the spectrum of antimicrobial activity for these compounds, the following representative minimum inhibitory concentrations shown on Tables A, B and C can be noted:
(§3) Minimum Inhibitory Concentrations In Vitro, in μg/ml of Medium

Experiment [6] has as its system Mycoplasma gran. In words: Minimum inhibitory concentration, Mycoplasma gran. Type of experiment: cell-based.
The test system of experiment [7] is Bordetella bronchiseptica. The experiment in a line: Minimum inhibitory concentration, Bordetella bronchiseptica. The experiment is classed as cell-based.
Experiment [8] has as its system Pasteurella multocida ATCC. The experiment in a line: Minimum inhibitory concentration, Pasteurella multocida ATCC. The experiment is classed as cell-based.
For experiment [9], the system named is Klebsiella 8085. In words: Minimum inhibitory concentration in vitro, Klebsiella 8085. The experiment is classed as cell-based.
Description: as §2, §3

For experiment [10], the system named is Staphylococcus aureus 133. In words: Minimum inhibitory concentration in vitro, Staphylococcus aureus 133. The experiment is classed as cell-based.
Description: as §2, §3

For experiment [11], the system named is Alcaligenes faecalis ATCC. In words: Minimum inhibitory concentration, Alcaligenes faecalis ATCC. The experiment is classed as cell-based.
Experiment [12] has as its system Mycoplasma S6. In words: Minimum inhibitory concentration, Mycoplasma S6. Type of experiment: cell-based.
In experiment [13] the test system is Mycoplasma MS. The experiment in a line: Minimum inhibitory concentration, Mycoplasma MS. Type of experiment: cell-based.
Description: as §1

The subject of experiment [14] is Streptococcus pyogenes. In words: Minimum inhibitory concentration in vitro, Streptococcus pyogenes. Type of experiment: cell-based.
Description: as §2, §3

Experiment [15] in a line: Chick Fattening Test. The experiment is classed as in vivo. The conditions noted are these: for Relative Weight Increase (%) after 14 days / Relative Weight Increase (%) after 28 days: control 100.0. The source says: The use of these compounds as feed additives can be seen from the following feeding experiments (Table D).
Chicks in groups of 12 were kept in cages and supplied with water ad libitum and a complete chick feed into which was intimately mixed the indicated amount of the test compound.

With `COC(=O)NN=Cc1c(C(=O)N2CCCCC2)[n+]([O-])c2ccccc2[n+]1[O-]` [Example 10], the MIC was found to be 10 µg/mL (≈ 26.8 µM) in experiment [1]; 10 µg/mL (≈ 26.8 µM) in [2]; 100 µg/mL (≈ 268 µM) in experiment [3]; 100 µg/mL (≈ 268 µM) in experiment [4]; 100 µg/mL (≈ 268 µM) in experiment [5]; 10 µg/mL (≈ 26.8 µM) in [6]. The MIC in experiment [7] stood at 100 µg/mL (≈ 268 µM); in experiment [8], 1 µg/mL (≈ 2.68 µM); in [9], 100 µg/mL (≈ 268 µM); in [10], 100 µg/mL (≈ 268 µM); in [11] it was 100 µg/mL (≈ 268 µM); in [12], 10 µg/mL (≈ 26.8 µM). In addition, the MIC in [13] and in [14] was 100 µg/mL (≈ 268 µM) throughout.

Consider `COC(=O)NN=Cc1c(C(=O)NCCO)[n+]([O-])c2ccccc2[n+]1[O-]` [Example 14], for which the MIC in experiment [1], in [2], in experiment [3], in [6], in [7] and in experiment [8] was 100 µg/mL (≈ 286 µM) in each case. In addition, the MIC in [9], in experiment [10], in experiment [11], in experiment [12] and in experiment [14] was 100 µg/mL (≈ 286 µM) throughout.

In the case of `COC(=O)NN=Cc1c(C(=O)NC2CCCCC2)[n+]([O-])c2ccccc2[n+]1[O-]` [Example 16], the MIC in [1], in experiment [2], in [3], in experiment [6], in experiment [7] and in [8] was 100 µg/mL (≈ 258 µM) in each case. The MIC in experiment [9], in [10], in experiment [11], in [12] and in [14] was 100 µg/mL (≈ 258 µM) throughout.

As for `O=C(NCCO)c1c(C=NO)[n+]([O-])c2ccccc2[n+]1[O-]` [Example 20], the MIC in [1], in [2], in experiment [3], in experiment [4], in experiment [6] and in experiment [7] was 100 µg/mL (≈ 342 µM) in each case. Moreover, the MIC in [8], in [11] and in experiment [12] was 100 µg/mL (≈ 342 µM) in each case. Besides, the “Relative Weight Increase (%) after 14 days” value in experiment [15] (Test 1, 50 ppm in feed) was 107.4%; in experiment [15] (Test 2, 10 ppm in feed), 104.5%; in [15] (Test 2, 20 ppm in feed), 106.8%. Further, the “Absolute Weight Increase (g) of each animal after 14 days” value in experiment [15] (Test 1, 50 ppm in feed, control 111.5) is on record as 119.9 g; in [15] (Test 2, 10 ppm in feed, control 109.2) it was 114.2 g; in [15] (Test 2, 20 ppm in feed, control 109.2), 116.7 g. The “Average Weight of each animal after 14 days” value in experiment [15] (Test 1, 50 ppm in feed, control 170.8, initial weight 59.3 g) amounted to 179.2; in experiment [15] (Test 2, 10 ppm in feed, control 168.3, initial weight 59.1 g), 173.3; in [15] (Test 2, 20 ppm in feed, control 168.3, initial weight 59.1 g), 175.8. Also, the “Relative Weight Increase (%) after 28 days” value in experiment [15] (Test 1, 50 ppm in feed) is given as 104.1%; in experiment [15] (Test 2, 10 ppm in feed) it was 102.2%; in experiment [15] (Test 2, 20 ppm in feed), 102.8%. The “Absolute Weight Increase (g) of each animal after 28 days” value in experiment [15] (Test 1, 50 ppm in feed, control 275.9) stood at 287.3 g; in experiment [15] (Test 2, 10 ppm in feed, control 292.5), 299.2 g; in experiment [15] (Test 2, 20 ppm in feed, control 292.5) it was 300.9 g. Also, the “Average Weight of each animal after 28 days” value in experiment [15] (Test 1, 50 ppm in feed, control 335.2, initial weight 59.3 g) is reported as 346.6; in experiment [15] (Test 2, 10 ppm in feed, control 351.6, initial weight 59.1 g) it was 358.3; in experiment [15] (Test 2, 20 ppm in feed, control 351.6, initial weight 59.1 g), 360.0.

On to `COC(=O)NN=Cc1c(C(=O)N2CCOCC2)[n+]([O-])c2ccccc2[n+]1[O-]` [Example 21], for which the MIC is 100 µg/mL (≈ 266 µM) in [1]; 1 µg/mL (≈ 2.66 µM) in experiment [2]; 1 µg/mL (≈ 2.66 µM) in [3]; 100 µg/mL (≈ 266 µM) in [4]; 0.1 µg/mL (≈ 0.266 µM) in [6]; 100 µg/mL (≈ 266 µM) in [7]. Further, the MIC in experiment [8] was 10 µg/mL (≈ 26.6 µM); in [11] it was 100 µg/mL (≈ 266 µM); in [12], 1 µg/mL (≈ 2.66 µM); in [13], 10 µg/mL (≈ 26.6 µM).

For `CCNC(=O)c1c(C=NO)[n+]([O-])c2ccccc2[n+]1[O-]` [Example 22], the MIC in experiment [1] turned out to be 100 µg/mL (≈ 362 µM); in [2], 1 µg/mL (≈ 3.62 µM); in experiment [3], 0.1 µg/mL (≈ 0.362 µM); in experiment [4] it was 100 µg/mL (≈ 362 µM); in experiment [6], 10 µg/mL (≈ 36.2 µM); in experiment [7], 100 µg/mL (≈ 362 µM). The MIC was determined as 10 µg/mL (≈ 36.2 µM) in experiment [8], 100 µg/mL (≈ 362 µM) in [11], 10 µg/mL (≈ 36.2 µM) in experiment [12] and 100 µg/mL (≈ 362 µM) in experiment [13].

With `CCCNC(=O)c1c(C=NO)[n+]([O-])c2ccccc2[n+]1[O-]` [Example 23], the MIC in experiment [1] was 100 µg/mL (≈ 344 µM); in experiment [2], 1 µg/mL (≈ 3.44 µM); in [3], 100 µg/mL (≈ 344 µM); in experiment [4], 100 µg/mL (≈ 344 µM); in [6] it was 1 µg/mL (≈ 3.44 µM); in experiment [7], 100 µg/mL (≈ 344 µM). Moreover, the MIC in experiment [8], in [11], in experiment [12] and in experiment [13] was 100 µg/mL (≈ 344 µM) throughout.

Consider `CC(C)NC(=O)c1c(C=NO)[n+]([O-])c2ccccc2[n+]1[O-]` [Example 24], for which the MIC in experiment [1] worked out at 100 µg/mL (≈ 344 µM); in experiment [2], 1 µg/mL (≈ 3.44 µM); in experiment [3], 100 µg/mL (≈ 344 µM); in experiment [4], 100 µg/mL (≈ 344 µM); in [6] it was 1 µg/mL (≈ 3.44 µM); in experiment [7], 100 µg/mL (≈ 344 µM). For the same compound, the MIC in experiment [8], in experiment [11], in [12] and in [13] was 100 µg/mL (≈ 344 µM) in each case.

As for `CNC(=O)c1c(C=NNC(=O)OCCO)[n+]([O-])c2ccccc2[n+]1[O-]` [Example 25], the MIC in [1] was determined as 100 µg/mL (≈ 286 µM); in experiment [2], 1 µg/mL (≈ 2.86 µM); in experiment [3], 100 µg/mL (≈ 286 µM); in experiment [6], 1 µg/mL (≈ 2.86 µM); in [7], 100 µg/mL (≈ 286 µM); in experiment [8], 100 µg/mL (≈ 286 µM). The MIC in [11], in experiment [12] and in experiment [13] was 100 µg/mL (≈ 286 µM) throughout.

As to `CCOC(=O)NN=Cc1c(C(=O)NCCO)[n+]([O-])c2ccccc2[n+]1[O-]` [Example 27], the MIC in [1], in experiment [2], in [3], in experiment [6], in experiment [7] and in experiment [8] was 100 µg/mL (≈ 275 µM) throughout. In addition, the MIC in experiment [9], in experiment [11], in experiment [12] and in experiment [14] was 100 µg/mL (≈ 275 µM) throughout.

Take `O=C(NN=Cc1c(C(=O)NCCO)[n+]([O-])c2ccccc2[n+]1[O-])OCCO` [Example 28]: the MIC in [1], in [2], in experiment [3], in [6], in experiment [7] and in experiment [8] was 100 µg/mL (≈ 264 µM) in each case. Further, the MIC in experiment [11] and in [12] was 100 µg/mL (≈ 264 µM) throughout.

Turning to `O=C(NCCO)c1c(C=NNC(=O)N2CCOCC2)[n+]([O-])c2ccccc2[n+]1[O-]` [Example 29], the MIC in experiment [1] was 100 µg/mL (≈ 247 µM); in experiment [2], 100 µg/mL (≈ 247 µM); in [3], 100 µg/mL (≈ 247 µM); in experiment [4], 40 µg/mL (≈ 98.9 µM); in experiment [6], 100 µg/mL (≈ 247 µM); in experiment [7], 100 µg/mL (≈ 247 µM). The MIC in experiment [8], in experiment [11] and in [12] was 100 µg/mL (≈ 247 µM) throughout.
